This passage reports Kd results from BindingDB's records for doi:10.1074/jbc.M114.571216 (Dalhousie University, 2014).

Assay [1] addresses T1, Oxysterol-binding protein 2 (Homo sapiens, UniProt Q969R2).
T1 sequence (Q969R2 whole entry): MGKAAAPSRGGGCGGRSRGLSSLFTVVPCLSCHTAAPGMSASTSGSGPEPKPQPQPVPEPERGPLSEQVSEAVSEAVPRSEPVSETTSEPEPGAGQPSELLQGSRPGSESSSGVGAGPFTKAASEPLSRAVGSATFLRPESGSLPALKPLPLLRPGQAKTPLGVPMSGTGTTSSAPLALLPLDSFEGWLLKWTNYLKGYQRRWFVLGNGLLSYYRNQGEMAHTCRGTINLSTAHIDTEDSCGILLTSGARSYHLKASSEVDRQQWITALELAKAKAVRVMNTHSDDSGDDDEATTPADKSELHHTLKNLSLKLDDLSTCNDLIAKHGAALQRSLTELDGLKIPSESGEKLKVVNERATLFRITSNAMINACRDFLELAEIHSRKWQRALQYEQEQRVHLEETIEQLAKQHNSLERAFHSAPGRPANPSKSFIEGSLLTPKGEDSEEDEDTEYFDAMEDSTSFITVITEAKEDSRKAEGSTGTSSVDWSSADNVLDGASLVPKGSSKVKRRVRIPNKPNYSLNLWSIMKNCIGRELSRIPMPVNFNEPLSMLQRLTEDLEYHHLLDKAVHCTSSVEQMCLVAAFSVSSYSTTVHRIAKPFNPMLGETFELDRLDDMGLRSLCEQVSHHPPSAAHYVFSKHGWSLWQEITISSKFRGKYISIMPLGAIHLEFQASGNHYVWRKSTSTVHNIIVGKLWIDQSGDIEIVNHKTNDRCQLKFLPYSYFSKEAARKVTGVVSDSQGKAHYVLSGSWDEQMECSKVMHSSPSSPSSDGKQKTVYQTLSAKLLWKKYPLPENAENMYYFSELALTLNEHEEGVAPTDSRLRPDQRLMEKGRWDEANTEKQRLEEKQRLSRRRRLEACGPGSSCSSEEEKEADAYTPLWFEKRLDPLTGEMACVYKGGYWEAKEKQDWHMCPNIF
Nature of the assay: Sterol-Binding Assay. To be noted: pH 7.4; 20 °C. As to the method:
(§1) Recombinant OSBP, ORP4L, or ORP4S (8 pmol) was incubated in 75 μl of binding buffer (10 mM HEPES (pH 7.4), 150 mM KCl, 2% (w/v) polyvinyl alcohol) containing radioactive sterols (with or without a 40-fold excess of unlabeled sterol). After 2 h at 20 °C, a 25-μl slurry of Talon resin (1:1, v/v) was added and mixed for 10 min. Talon resin and bound protein were washed three times with 300 μl of 10 mM HEPES (pH 7.4) and 150 mM KCl and sedimented by brief centrifugation. Bound proteins were eluted from the resin with 150 mM imidazole (pH 7.4), the resin was sedimented by centrifugation, and radioactivity bound to protein in the supernatant was measured by liquid scintillation counting.

The target in assay [2] is T2, Oxysterol-binding protein 2 [1-181,275-916] (Homo sapiens, UniProt Q969R2).
T2 construct: 1-181,275-916
T2 sequence (Q969R2 whole entry): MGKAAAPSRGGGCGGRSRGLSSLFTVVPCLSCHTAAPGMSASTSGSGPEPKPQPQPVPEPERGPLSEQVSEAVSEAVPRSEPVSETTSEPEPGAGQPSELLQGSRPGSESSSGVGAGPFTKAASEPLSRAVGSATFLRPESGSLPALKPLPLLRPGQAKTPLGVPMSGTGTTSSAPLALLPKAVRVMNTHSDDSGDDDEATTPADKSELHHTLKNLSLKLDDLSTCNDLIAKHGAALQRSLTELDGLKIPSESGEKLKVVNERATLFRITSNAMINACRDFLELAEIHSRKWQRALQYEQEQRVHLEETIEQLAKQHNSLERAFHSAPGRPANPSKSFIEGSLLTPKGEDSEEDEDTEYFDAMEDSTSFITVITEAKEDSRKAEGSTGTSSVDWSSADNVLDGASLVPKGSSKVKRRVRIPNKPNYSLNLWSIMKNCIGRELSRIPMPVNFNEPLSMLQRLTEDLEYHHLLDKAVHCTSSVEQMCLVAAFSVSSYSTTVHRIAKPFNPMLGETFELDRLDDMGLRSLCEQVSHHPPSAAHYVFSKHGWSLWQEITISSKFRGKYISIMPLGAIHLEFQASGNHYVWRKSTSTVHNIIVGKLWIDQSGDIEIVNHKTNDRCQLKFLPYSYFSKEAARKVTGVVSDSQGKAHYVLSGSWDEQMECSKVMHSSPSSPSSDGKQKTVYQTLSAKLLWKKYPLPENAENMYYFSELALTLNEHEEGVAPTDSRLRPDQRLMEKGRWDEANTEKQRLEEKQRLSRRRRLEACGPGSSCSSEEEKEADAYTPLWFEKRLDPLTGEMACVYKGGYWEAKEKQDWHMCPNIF
Description: Sterol-Binding Assay. Particulars: pH 7.4; 20 °C. As to the method:
as §1

In general, Kd refers to the constant that tells how readily two partners part at equilibrium. Low readings indicate a tighter complex, high ones a looser complex.

For the compound `CC(C)CCC[C@@H](C)[C@H]1CC[C@H]2[C@@H]3CC=C4C[C@@H](O)CC[C@]4(C)[C@H]3CC[C@]12C` [(1S,2R,5S,10S,11S,14R,15R)-2,15-dimethyl-14-[(2R)-6-methylheptan-2-yl]tetracyclo[8.7.0.0^{2,7}.0^{11,15}]heptadec-7-en-5-ol], the Kd in assay [1] was 68 nM; in assay [2], 60 nM.

Regarding `C[C@H](CCCC(C)(C)O)[C@H]1CC[C@H]2[C@@H]3CC=C4C[C@@H](O)CC[C@]4(C)[C@H]3CC[C@]12C` [(1S,2R,5S,10S,11S,14R,15R)-14-[(2R)-6-hydroxy-6-methylheptan-2-yl]-2,15-dimethyltetracyclo[8.7.0.0^{2,7}.0^{11,15}]heptadec-7-en-5-ol], the Kd in assay [1] was determined as 17 nM; in assay [2], 23 nM.
